Measured values published in US20040242627A1, “2-Iminoimidazole derivatives (1)” (priority 2001, published 2004).
Where a name gives a salt, the structure may show the parent alone.

Assays:
PAR1 thrombin receptor = target: T1, PAR1 thrombin receptor (Homo sapiens, UniProt P25116); test: Receptor binding assay (high affinity TRAP displacement, platelet membrane); details: platelet membrane of healthy adult, [3H] high affinity TRAP, 37° C. 1 hour; read-out: RBA IC50
T1 construct: homogenized with a Dounce homogenizer, and then centrifuged at 40,000 g for 60 minutes to yield platelet membrane; from tissue; host or cells: platelet membrane prepared from the blood of a healthy adult donor
T1 sequence (P25116 22-425): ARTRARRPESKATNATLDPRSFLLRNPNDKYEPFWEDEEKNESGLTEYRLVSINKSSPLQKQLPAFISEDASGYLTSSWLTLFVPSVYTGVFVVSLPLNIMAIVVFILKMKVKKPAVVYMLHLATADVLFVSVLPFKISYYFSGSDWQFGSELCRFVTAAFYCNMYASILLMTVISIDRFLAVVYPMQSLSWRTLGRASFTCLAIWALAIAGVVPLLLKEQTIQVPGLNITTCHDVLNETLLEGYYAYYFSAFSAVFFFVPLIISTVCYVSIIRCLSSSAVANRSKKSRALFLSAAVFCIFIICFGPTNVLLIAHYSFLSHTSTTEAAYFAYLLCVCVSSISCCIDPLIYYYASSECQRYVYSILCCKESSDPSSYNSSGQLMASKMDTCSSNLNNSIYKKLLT
Procedure: Blood was sampled from a healthy adult who had taken no drugs for one week, and 3.8% citric acid (a ratio of 1:9 with respect to the blood) was added as an anticoagulant. The mixture was then centrifuged at 100 g for 10 minutes at room temperature to yield platelet rich plasma (PRP). The platelet precipitate obtained by centrifuging the PRP was homogenized with a Dounce homogenizer, and then centrifuged at 40,000 g for 60 minutes to yield platelet membrane. The platelet membrane was suspended in a solution prepared by adding DMSO (dimethyl sulfoxide) at 1% concentration to Buffer 1: a 50 mM Tris-HCl buffer containing 10 mM MgCl2 and 1 mM EGTA (ethylene glycol tetraacetic acid), and the suspension was stored at −80° C. Bovine albumin and DMSO were added to Buffer 1 at 0.1% and 20%, respectively, to make a preparation solution for the test compound. […] Next, 30 μl of liquid scintillator was added for measurement of the radioactivity of the plate using a Top Counter (Packard), the value of the radioactivity in the presence of the test compound minus non-specific binding portion was divided by the specific binding value (the value of the binding in the absence of the compound minus the non-specific binding portion) to determine the binding ratio, from which the IC50 value was calculated. […]

[1] = system: platelet rich plasma (PRP), thrombin-induced platelet aggregation; test: Inhibitory effects on platelet aggregation using platelet rich plasma (thrombin-induced); format: cell-based; details: Homo sapiens, PRP of healthy adult, thrombin 0.5-1.5 units/ml, area under aggregation curve, read-out: Thr IC50
Procedure: [Inhibitory Effects on Platelet Aggregation using Platelet Rich Plasma]
Blood was sampled from a healthy adult who had taken no drugs for one week, and 3.8% citric acid (a ratio of 1:9 with respect to the blood) was added as an anticoagulant. The mixture was then centrifuged at 100 g for 10 minutes at room temperature to yield platelet rich plasma (PRP). The PRP-removed blood was further centrifuged at 1000 g for 10 minutes to yield platelet poor plasma (PPP). The number of platelet was counted using a multi-parameter automatic hemocyte counter (K4500, Sysmex), and the PRP was diluted to approximately 300,000/μl with the PPP. The platelet aggregation activity was determined in the following manner using an Aggregometer (MC Medical). […] After addition of thrombin, the aggregation reaction was examined for 6 minutes and the areas under the aggregation curves were compared to determine the inhibition ratio, from which the IC50 value was calculated.

Question: For CC(C)(C)c1cc(C(=O)Cn2c(=N)n(Cc3ccc(N)cc3)c3ccccc32)cc(C(C)(C)C)c1O [Example 40, 2-[3-(4-amino-benzyl)-2-imino-2,3-di-hydro-benzimida-zol-1-yl]-1-(3,5-di-tert-bu-tyl-4-hydroxy-phenyl)-ethanone dihydrochloride], which IC50 (PAR1 thrombin receptor) is on record?
Answer: The IC50 was 260 nM.

Question: What about the IC50 [1] of the same compound?
Answer: Its IC50 is 1300 nM.
